Results from the supplement of paper PMC10307832.

What was measured:
Test in all cases: relative viability (nuclei count vs DMSO), 5 days (fraction); higher = more cells survive
NCI-H520 = system: NCI-H520
How it was run: (§1)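 Relative viability divides the nuclei count in treated wells by that in vehicle wells. Lung cancer cell lines were seeded in 1536-well plates, dosed by pin tool the next day, and fixed and stained after 5 days in one step with final 0.05% Triton X-100, 1% formaldehyde and 1 ug/ml Hoechst. Dosing was a single drug or a fixed anchor-drug dose plus five library-drug doses (not always all listed) in √10 steps, and values are medians of duplicate plates imaged at 4×.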

NCI-H2126 = system: NCI-H2126
How it was run: as §1

NCI-H647 = system: NCI-H647
How it was run: as §1

LCLC-97TM1 = system: LCLC-97TM1
How it was run: as §1

RERF-LC-KJ = system: RERF-LC-KJ
How it was run: as §1

H3255 = system: H3255
How it was run: as §1

LC-2-ad = system: LC-2-ad
How it was run: as §1

NCI-H2087 = system: NCI-H2087
How it was run: as §1

NCI-H2347 = system: NCI-H2347
How it was run: as §1

EPLC-272H = system: EPLC-272H
How it was run: as §1

PC-14 = system: PC-14
How it was run: as §1

201T = system: 201T
How it was run: as §1

NCI-H650 = system: NCI-H650
How it was run: as §1

NCI-H1915 = system: NCI-H1915
How it was run: as §1

COR-L 105 = system: COR-L 105
How it was run: as §1

HCC-827 = system: HCC-827
How it was run: as §1

HCC-78 = system: HCC-78
How it was run: as §1

NCI-H2405 = system: NCI-H2405
How it was run: as §1

ChaGo-K-1 = system: ChaGo-K-1
How it was run: as §1

NCI-H661 = system: NCI-H661
How it was run: as §1

NCI-H1666 = system: NCI-H1666
How it was run: as §1

NCI-H23 = system: NCI-H23
How it was run: as §1

Question: With `COc1cc2nccc(Oc3ccc(NC(=O)Nc4cc(C)on4)c(Cl)c3)c2cc1OC` [Tivozanib] + COc1cccc2cc(-c3nc([C@H]4CC[C@H](C(=O)O)CC4)n4ncnc(N)c34)[nH]c12 [OSI-027] (partner 0.5 µM) as the compound, how does the relative viability (NCI-H520; first compound 0.005 µM) read?
Answer: 0.244

Question: And the relative viability (NCI-H520; first compound 0.01581 µM)?
Answer: 0.249

Question: What about the relative viability (NCI-H520; first compound 0.05 µM) of the same compound?
Answer: 0.267

Question: And the relative viability (NCI-H520; first compound 0.1581 µM)?
Answer: 0.167

Question: What about the relative viability (NCI-H520; first compound 0.5 µM) of the same compound?
Answer: 0.313

Question: What about the relative viability (NCI-H2126; first compound 0.005 µM) of the same compound?
Answer: 0.655

Question: And the relative viability (NCI-H2126; first compound 0.01581 µM)?
Answer: 0.701

Question: And the relative viability (NCI-H2126; first compound 0.05 µM)?
Answer: 0.776

Question: And the relative viability (NCI-H2126; first compound 0.5 µM)?
Answer: 0.691

Question: And the relative viability (NCI-H647; first compound 0.005 µM)?
Answer: 0.74

Question: What about the relative viability (NCI-H647; first compound 0.01581 µM) of the same compound?
Answer: 0.618

Question: What about the relative viability (NCI-H647; first compound 0.05 µM) of the same compound?
Answer: 0.728

Question: What about the relative viability (NCI-H647; first compound 0.1581 µM) of the same compound?
Answer: 0.526

Question: And the relative viability (NCI-H647; first compound 0.5 µM)?
Answer: 0.658

Question: And the relative viability (LCLC-97TM1; first compound 0.005 µM)?
Answer: 0.52

Question: What about the relative viability (LCLC-97TM1; first compound 0.01581 µM) of the same compound?
Answer: 0.573

Question: And the relative viability (LCLC-97TM1; first compound 0.05 µM)?
Answer: 0.636

Question: And the relative viability (LCLC-97TM1; first compound 0.1581 µM)?
Answer: 0.476

Question: And the relative viability (LCLC-97TM1; first compound 0.5 µM)?
Answer: 0.455

Question: And the relative viability (RERF-LC-KJ; first compound 0.005 µM)?
Answer: 0.458

Question: What about the relative viability (RERF-LC-KJ; first compound 0.01581 µM) of the same compound?
Answer: 0.62

Question: What about the relative viability (RERF-LC-KJ; first compound 0.05 µM) of the same compound?
Answer: 0.657

Question: What about the relative viability (RERF-LC-KJ; first compound 0.1581 µM) of the same compound?
Answer: 0.415

Question: What about the relative viability (RERF-LC-KJ; first compound 0.5 µM) of the same compound?
Answer: 0.59

Question: What about the relative viability (H3255; first compound 0.005 µM) of the same compound?
Answer: 0.571

Question: What about the relative viability (H3255; first compound 0.01581 µM) of the same compound?
Answer: 0.597

Question: And the relative viability (H3255; first compound 0.05 µM)?
Answer: 0.634

Question: And the relative viability (H3255; first compound 0.1581 µM)?
Answer: 0.47

Question: And the relative viability (H3255; first compound 0.5 µM)?
Answer: 0.556

Question: What about the relative viability (LC-2-ad; first compound 0.005 µM) of the same compound?
Answer: 0.784

Question: What about the relative viability (LC-2-ad; first compound 0.01581 µM) of the same compound?
Answer: 0.834

Question: And the relative viability (LC-2-ad; first compound 0.05 µM)?
Answer: 0.812

Question: What about the relative viability (LC-2-ad; first compound 0.1581 µM) of the same compound?
Answer: 0.71

Question: What about the relative viability (LC-2-ad; first compound 0.5 µM) of the same compound?
Answer: 0.512

Question: And the relative viability (NCI-H2087; first compound 0.005 µM)?
Answer: 0.461

Question: What about the relative viability (NCI-H2087; first compound 0.01581 µM) of the same compound?
Answer: 0.6

Question: What about the relative viability (NCI-H2087; first compound 0.05 µM) of the same compound?
Answer: 0.558

Question: What about the relative viability (NCI-H2087; first compound 0.1581 µM) of the same compound?
Answer: 0.376

Question: What about the relative viability (NCI-H2087; first compound 0.5 µM) of the same compound?
Answer: 0.44

Question: And the relative viability (NCI-H2347; first compound 0.01581 µM)?
Answer: 0.373

Question: What about the relative viability (NCI-H2347; first compound 0.05 µM) of the same compound?
Answer: 0.262

Question: And the relative viability (NCI-H2347; first compound 0.5 µM)?
Answer: 0.408

Question: And the relative viability (EPLC-272H; first compound 0.005 µM)?
Answer: 0.268

Question: And the relative viability (EPLC-272H; first compound 0.01581 µM)?
Answer: 0.318

Question: What about the relative viability (EPLC-272H; first compound 0.05 µM) of the same compound?
Answer: 0.299

Question: And the relative viability (EPLC-272H; first compound 0.1581 µM)?
Answer: 0.244

Question: And the relative viability (EPLC-272H; first compound 0.5 µM)?
Answer: 0.294

Question: And the relative viability (PC-14; first compound 0.005 µM)?
Answer: 0.695

Question: What about the relative viability (PC-14; first compound 0.01581 µM) of the same compound?
Answer: 0.928

Question: What about the relative viability (PC-14; first compound 0.05 µM) of the same compound?
Answer: 0.83

Question: And the relative viability (PC-14; first compound 0.1581 µM)?
Answer: 0.664

Question: What about the relative viability (PC-14; first compound 0.5 µM) of the same compound?
Answer: 0.664

Question: What about the relative viability (201T; first compound 0.005 µM) of the same compound?
Answer: 0.777

Question: And the relative viability (201T; first compound 0.01581 µM)?
Answer: 0.798

Question: And the relative viability (201T; first compound 0.05 µM)?
Answer: 0.36

Question: And the relative viability (201T; first compound 0.1581 µM)?
Answer: 0.572

Question: And the relative viability (201T; first compound 0.5 µM)?
Answer: 0.709

Question: And the relative viability (NCI-H650; first compound 0.005 µM)?
Answer: 0.489

Question: And the relative viability (NCI-H650; first compound 0.01581 µM)?
Answer: 0.577

Question: And the relative viability (NCI-H650; first compound 0.05 µM)?
Answer: 0.613

Question: What about the relative viability (NCI-H650; first compound 0.1581 µM) of the same compound?
Answer: 0.44

Question: What about the relative viability (NCI-H650; first compound 0.5 µM) of the same compound?
Answer: 0.398

Question: And the relative viability (NCI-H1915; first compound 0.005 µM)?
Answer: 0.594

Question: What about the relative viability (NCI-H1915; first compound 0.01581 µM) of the same compound?
Answer: 0.604

Question: What about the relative viability (NCI-H1915; first compound 0.05 µM) of the same compound?
Answer: 0.653

Question: And the relative viability (NCI-H1915; first compound 0.1581 µM)?
Answer: 0.523

Question: What about the relative viability (NCI-H1915; first compound 0.5 µM) of the same compound?
Answer: 0.49

Question: What about the relative viability (COR-L 105; first compound 0.005 µM) of the same compound?
Answer: 0.707

Question: What about the relative viability (COR-L 105; first compound 0.01581 µM) of the same compound?
Answer: 0.748

Question: And the relative viability (COR-L 105; first compound 0.05 µM)?
Answer: 0.719

Question: What about the relative viability (COR-L 105; first compound 0.1581 µM) of the same compound?
Answer: 0.525

Question: What about the relative viability (COR-L 105; first compound 0.5 µM) of the same compound?
Answer: 0.762

Question: And the relative viability (HCC-827; first compound 0.005 µM)?
Answer: 0.74

Question: What about the relative viability (HCC-827; first compound 0.01581 µM) of the same compound?
Answer: 0.693

Question: What about the relative viability (HCC-827; first compound 0.05 µM) of the same compound?
Answer: 0.766

Question: What about the relative viability (HCC-827; first compound 0.1581 µM) of the same compound?
Answer: 0.621

Question: And the relative viability (HCC-827; first compound 0.5 µM)?
Answer: 0.763

Question: And the relative viability (HCC-78; first compound 0.005 µM)?
Answer: 0.326

Question: And the relative viability (HCC-78; first compound 0.01581 µM)?
Answer: 0.369

Question: What about the relative viability (HCC-78; first compound 0.05 µM) of the same compound?
Answer: 0.386

Question: What about the relative viability (HCC-78; first compound 0.1581 µM) of the same compound?
Answer: 0.31

Question: And the relative viability (HCC-78; first compound 0.5 µM)?
Answer: 0.316

Question: And the relative viability (NCI-H2405; first compound 0.005 µM)?
Answer: 0.631

Question: What about the relative viability (NCI-H2405; first compound 0.01581 µM) of the same compound?
Answer: 0.716

Question: What about the relative viability (NCI-H2405; first compound 0.05 µM) of the same compound?
Answer: 0.684

Question: And the relative viability (NCI-H2405; first compound 0.1581 µM)?
Answer: 0.526

Question: And the relative viability (NCI-H2405; first compound 0.5 µM)?
Answer: 0.577

Question: What about the relative viability (ChaGo-K-1; first compound 0.005 µM) of the same compound?
Answer: 0.601

Question: And the relative viability (ChaGo-K-1; first compound 0.01581 µM)?
Answer: 0.555

Question: And the relative viability (ChaGo-K-1; first compound 0.05 µM)?
Answer: 0.605

Question: What about the relative viability (ChaGo-K-1; first compound 0.1581 µM) of the same compound?
Answer: 0.552

Question: And the relative viability (ChaGo-K-1; first compound 0.5 µM)?
Answer: 0.432

Question: And the relative viability (NCI-H661; first compound 0.005 µM)?
Answer: 0.672

Question: And the relative viability (NCI-H661; first compound 0.01581 µM)?
Answer: 0.73

Question: What about the relative viability (NCI-H661; first compound 0.05 µM) of the same compound?
Answer: 0.724

Question: And the relative viability (NCI-H661; first compound 0.1581 µM)?
Answer: 0.646

Question: What about the relative viability (NCI-H661; first compound 0.5 µM) of the same compound?
Answer: 0.688

Question: And the relative viability (NCI-H1666; first compound 0.005 µM)?
Answer: 0.927

Question: And the relative viability (NCI-H1666; first compound 0.01581 µM)?
Answer: 0.856

Question: And the relative viability (NCI-H1666; first compound 0.05 µM)?
Answer: 0.843

Question: And the relative viability (NCI-H1666; first compound 0.1581 µM)?
Answer: 0.799

Question: And the relative viability (NCI-H1666; first compound 0.5 µM)?
Answer: 0.807

Question: What about the relative viability (NCI-H23; first compound 0.005 µM) of the same compound?
Answer: 0.578

Question: And the relative viability (NCI-H23; first compound 0.01581 µM)?
Answer: 0.595

Question: And the relative viability (NCI-H23; first compound 0.05 µM)?
Answer: 0.671

Question: And the relative viability (NCI-H23; first compound 0.1581 µM)?
Answer: 0.355

Question: What about the relative viability (NCI-H23; first compound 0.5 µM) of the same compound?
Answer: 0.367
